Results: US20230056189A1, “COMPOSITIONS AND METHODS FOR TREATMENT OF PATHOLOGIC PAIN ASSOCIATED WITH MALIGNANT GROWTH DISORDER” (Duke University, priority 2020, published 2023)

Assays:
Kcc2 gene expression = experiment: Composite ranking from primary and secondary screening; assay type: cell-based, mouse; details: for Total Score: sum of Luciferase, RT-qPCR and Clomeleon scores; for Top 2 Hits: winner = top 2 of each library by total score
Method: (§1) The primary screen encompassed three levels of LUC measurements. The first level of screening yielded a total of 137 compounds with cut-off RLU>125% LUC activity. These 137 compounds were subject to second round of screening, which was carried out in duplicate independent assays to yield the top 103 compounds sorted for highest RLU. The 103 compounds were then subjected to a third round of screening carried out in duplicate independent assays to yield the top 40 compounds which were again ranked. The best 22 of these 40 compounds (ranked for highest RLU activity) were subjected to secondary screening: cultured neurons were treated with the 22 compounds; RT-qPCR and Clomeleon imaging methodologies (Yeo et al., 2009, J Neurosci 29: 14652-14662) were used to determine effects of compounds on Kcc2 mRNA expression and [Cl-]i, respectively. Each compound was ranked based on composite scores from primary and secondary screening.
(§2) 1057 compounds were screened and contained in two NCI libraries: NCI compound libraries Natural Products II and Mechanistic Diversity Set II (FIG. 1, Table 2), related to inhibition of growth of malignantly transformed cells. […] Iterative screening followed by measurements of Kcc2 mRNA (RT-qPCR) and intracellular chloride ([Cl-]i) (clomeleon chloride indicator protein) led to decreasing numbers of re confirmed hits, which eventually identified four (4) “winner” compounds listed in the bottom panel of FIG. 1.

[1] = system: intracellular chloride ([Cl-]i) of primary cortical neurons; experiment: Secondary screen: Clomeleon chloride imaging in cultured primary cortical neurons; assay type: cell-based, mouse; details: for Chloride [Cl—]i, value left of '=>': starting value before the arrow; for Chloride [Cl—]i, value right of '=>': value after the arrow (with compound)
Method: as §1
(§3) Chloride imaging of primary cultured cortical neurons was conducted as previously described (Kuner and Augustine, 2000, Neuron 27: 447-459; Liedtke et al., 2013, Small (Weinheim an der Bergstrasse, Germany) 9: 1066-1075; Yeo et al., 2009, J Neurosci 29: 14652-14662). A Clomeleon expression plasmid was transfected into primary cortical neurons by electroporation (Amaxa Nucleofector Device). Transfected neurons were verified by yellow fluorescent protein (YFP) fluorescence, and ratiometric images (excitation at λ=434 nm, dual emission at λ=485 and 535 nm; for resting chloride, six stable frames at […] were captured, which were averaged) were acquired using RATIOTOOL program. Calibration of Clomeleon signals (535 nm/485 nm emission ratio) was performed by using tributyltin-nigericin to establish a standard curve, which was then normalized for measured intraneuronal pH to take into account the pH sensitivity of Clomeleon.
as §2

Kcc2 promoter = experiment: Primary screen: luciferase (LUC) activity in primary cortical neurons from Kcc2-LUC transgenic mice; assay type: cell-based, mouse; details: rank score within compound library; compounds 100 nM for 48 h
Method: Cell suspension was plated at a density of 1×10^6 cells/ml onto 24-well tissue-culture dishes coated with poly-d-lysine.
LUC activity was then determined for each compound. Culture supernatant was removed and cells were lysed with 150 μl lysis buffer (Targeting Systems CA, USA cat. CLR1). LUC activity was measured with a RedLuciferase Assay kit (Targeting Systems cat. FLAR) according to the manufacturer's instructions. A Veritas microplate luminometer was used to measure luminescence; for each treatment triplicates of 40 μl cell lysates (from each 24-well tissue-culture dish) were used and 25 μl substrate was injected per well. […] Relative Light units (RLU) for each treatment was derived from Light Units (compound treatment)/vehicle treatment (0.5% DMSO).
The primary screen encompassed three levels of LUC measurements. […] Each compound was ranked based on composite scores from primary and secondary screening.

Kcc2 mRNA = experiment: Secondary screen: Kcc2 RT-qPCR in cultured primary cortical neurons; assay type: cell-based, mouse; details: rank score within compound library
Method: as §1, with “Each compound was ranked based on composite scores from primary and secondary screening.” left out
Total RNA was isolated from cultured cell samples using Directzol RNA miniprep kit (ZymoResearch). […] Gene expression was assessed by quantitative real-time PCR using 2×SYBR Green Master Mix (Qiagen) and a three-step cycling protocol (anneal at 60° C./elongate at 72° C., denature at 95° C.). […] The amount of target messenger RNA (mRNA) in the experimental group relative to that in the control was determined from the resulting fluorescence and threshold values (Ct) using the […] method. […] was used as a housekeeping gene. […]

neuronal [Cl-]i = experiment: Clomeleon [Cl-]i measurement in rat primary cortical neurons; assay type: cell-based; details: VU0240551 2.5 μM, both vehicle-treated and KP-treated rat neurons
Method: as §3
Results represent the average mRNA expression of multiple independent neuronal cultures [n=12 (control), n=4 (0.1 μM KP), n=3 (0.2 μM KP), n=10 (0.5 μM KP). *p<0.05, **p<0.01, ****p<0.0001, one-way ANOVA].
It is shown that KP enhanced Kcc2 gene expression and KCC2 chloride extrusion function with rather rapid kinetics within 3 h time frame.

A375 = experiment: MTT cell viability assay; assay type: cell-based; details: KP 100 nM and/or paclitaxel 1 nM or 10 nM, 72 hours
Method: (§4) Two commonly used breast cancer cell lines (MCF7 and MDA MB-231) and one melanoma cell line (A375) were used in this study. 100 nM Kenpaullone (KP) and/or 1 nM or 10 nM paclitaxel (Taxol) were administered to the cell lines to test their impact on cell viability. Each bar represents an average of 6 experiments, and error bars represent SEM. Cell line maintenance and MTT cell viability assay were done according to Xiao et al. (2018, BMC Cancer, 18(1): 675). Cell viability was assessed after 72 hours.

MDA MB-231 = experiment: MTT cell viability assay; assay type: cell-based; details: KP 100 nM and/or paclitaxel 1 nM or 10 nM, 72 hours
Method: as §4

MCF7 = experiment: MTT cell viability assay; assay type: cell-based; details: KP 100 nM and/or paclitaxel 1 nM or 10 nM, 72 hours
Method: as §4

SMILES | Total Score (Kcc2 gene expression) | Chloride [Cl—]i, value left of '=>' [1] [mM] | Chloride [Cl—]i, value right of '=>' [1] [mM] | also measured
Cc1cc(-c2nc3ccccc3s2)ccc1N [4-(1,3-Benzothiazol-2-yl)-2-methylaniline] | 13 | 82 | 38 | –
CC(O)CCC(=O)c1ccoc1 (stereo not shown) [4-Ipomeanol] | 8 | 74 | 32 | –
N=C1N=CN=C2C([C@@H]3O[C@H](CO)[C@@H](O)[C@H]3O)=CN=C12 [9-Deazaadenosine] | 11 | 82 | 40 | –
CC(=O)Nc1ccc(-c2nc3ccccc3s2)cc1 [NSC33006, N-[4-(1,3-benzothiazol-2-yl)phenyl]acetamide] | 5 | 74 | 28 | Top 2 Hits (Kcc2 gene expression): winner
Cc1ccc(NC(=O)c2cccc([N+](=O)[O-])c2O)c(C)c1 [NSC79456, n-(2,4-Dimethylphenyl)-2-hydroxy-3-nitrobenzamide] | 5 | 74 | 24 | Top 2 Hits (Kcc2 gene expression): winner
CC(=O)C1CCCC(=O)/C=C/C(=O)O1 (stereo not shown) [NSC180515, 2-Acetyl-2,3,4,5-tetrahydrooxonine-6,9-dione] | 6 | 68 | 22 | Luciferase Score (triplicates) (Kcc2 promoter): 4; RT-qPCR Score (triplicates) (Kcc2 mRNA): 1; Top 2 Hits (Kcc2 gene expression): winner; Chloride reduction (%) [1]: 32%; Clomeleon Score (duplicates) ([1]; rank score within compound library): 1
Cc1csc(NC(=O)CSc2ccc(-c3ccccc3)nn2)n1 [VU0240551] | – | – | – | [Cl-]i with add-on KCC2-transport blocker (neuronal [Cl-]i): ≥ 120 mM
COc1ccc(C[C@H]2NC[C@H](O)[C@H]2OC(C)=O)cc1 [anisomycine] | – | 75 | 43 | –
C[C@@]12C(=O)OC(=O)[C@]1(C)[C@H]1CC[C@@H]2O1 [cantharidine] | – | 68 | 33 | –
CC1(C)CCC[C@]2(C)C3=C(CC[C@@H]12)C(=O)OC3 [confertifoline] | – | 75 | 42 | –
CC(=O)O[C@H]1C(=O)[C@@]2(C)[C@H]([C@H](OC(=O)c3ccccc3)[C@]3(O)C[C@H](OC(=O)[C@H](O)[C@@H](NC(=O)c4ccccc4)c4ccccc4)C(C)=C1C3(C)C)[C@]1(OC(C)=O)CO[C@@H]1C[C@@H]2O [paclitaxel] | – | – | – | cell viability (MTT) (A375): sensitive; cell viability (MTT) (MDA MB-231): sensitive; cell viability (MTT) (MCF7): sensitive
COc1cc2c3c(c4ccc(OC)c(OC)c4c2cc1OC)CN1CCC[C@H]1C3 [tylocrebrine] | – | 75 | 39 | –
